Laboratory results published in patent US20100041897A1, “Process for preparing a crystalline form of candesartan cilexetil” (CHEMO IBERICA, S.A., priority 2006, published 2010).
“Also recorded” adds a separate entry of the source.

Legend:
[1] = Accelerated stability test at 80° C., impurities determined by HPLC; format: physicochemical; conditions: product of crystallization assay from acetone/water 3:1 v/v, 80° C. for 5 to 9 days
[2] = as above; format: physicochemical; conditions: for stability in accelerated stability test (in words): 80° C.
Method: In order to determine the influence of Form II on the stability of candesartan cilexetil Form I, samples with different proportions of Form II were prepared and subjected to an accelerated stability test at a temperature of 80° C. for different periods of time up to 9 days. Once the time period elapsed, the samples were analyzed by HPLC for the determination of the content of impurities, according to the method described in the Examples. Samples of candesartan cilexetil Form I containing different proportions of Form II were prepared from the products obtained in Example 2 and Preparative Example 1. The samples were exposed to an accelerated stability test at a temperature of 80° C. for different time periods up to 9 days. Once the time period has elapsed, the samples were analyzed by HPLC for the determination of the content of impurities. Impurities corresponding to the following retention times: 8.3, 10.4, 12.5, 14.1 and 16.4 minutes were identified in the HPLC chromatograms. The HPLC analysis of impurities was carried out in a HPLC system with UV detector (Waters Alliance), with a L1-type column according to US Pharmacopeia nomenclature, at a temperature of 30° C., with a flow rate of 1 ml/min, an injection volume of 10 μl, and an UV detector at 210 nm. The mobile phase was constituted by a mixture of solution A (v/v) (aqueous 0.1% v/v trifluoroacetic acid buffer) and acetonitrile. During the analysis the mobile phase contained 45% of Solution A and 55% of acetonitrile, except for the period comprised from minute 15 to minute 25 wherein a mixture of 5% Solution A and 95% acetonitrile was used. The sample was prepared dissolving 0.2 mg of the sample in 1 ml of mobile phase. The sum of the impurities refers to the sum of areas recorded in the HPLC chromatogram corresponding to the degradation impurities detected at the retention times above specified.

[3] = solid sample kept at 80° C. for 7 days
[4] = solid sample kept at 80° C. for 9 days

CCOc1nc2cccc(C(=O)OC(C)OC(=O)OC3CCCCC3)c2n1Cc1ccc(-c2ccccc2-c2nnn[nH]2)cc1 (centres unmarked) [Assay 3, candesartan cilexetil]
Stability ([1]; listed as 3): Poor

CCOc1nc2cccc(C(=O)OC(C)OC(=O)OC3CCCCC3)c2n1Cc1ccc(-c2ccccc2-c2nnn[nH]2)cc1 (centres unmarked) [Assay 4, candesartan cilexetil]
Stability ([1]; listed as 4): Good

CCOc1nc2cccc(C(=O)OC(C)OC(=O)OC3CCCCC3)c2n1Cc1ccc(-c2ccccc2-c2nnn[nH]2)cc1 (centres unmarked) [Comparative Example 2, candesartan cilexetil]
stability in accelerated stability test (in words) [2]: deficient stability

CCOc1nc2cccc(C(=O)OC(C)OC(=O)OC3CCCCC3)c2n1Cc1ccc(-c2ccccc2-c2nnn[nH]2)cc1 (centres unmarked) [Example 1, candesartan cilexetil]
Stability [1]: Poor

CCOc1nc2cccc(C(=O)OC(C)OC(=O)OC3CCCCC3)c2n1Cc1ccc(-c2ccccc2-c2nnn[nH]2)cc1 (centres unmarked) [Form I (Example 2), 2-ethoxy-1-[[2′-(1H-tetrazol-5-yl)[1,1′-biphenyl]-4-yl]methyl]-1H-benzimidazole-7-carboxylic acid, 1-[[(cyclohexyloxy)carbonyl]oxy]ethyl ester]
stability in accelerated stability test (in words) ([2]; listed as candesartan cilexetil Form I): good stability; also recorded: high stability
Sum of impurities (% HPLC area) [2, 3]: 0.34 % HPLC area

CCOc1nc2cccc(C(=O)OC(C)OC(=O)OC3CCCCC3)c2n1Cc1ccc(-c2ccccc2-c2nnn[nH]2)cc1 (centres unmarked) [Form I + 0.1% of Form II, candesartan cilexetil]
Sum of impurities (% HPLC area) [2, 4]: 0.96 % HPLC area

CCOc1nc2cccc(C(=O)OC(C)OC(=O)OC3CCCCC3)c2n1Cc1ccc(-c2ccccc2-c2nnn[nH]2)cc1 (centres unmarked) [Form I + 0.3% of Form II, candesartan cilexetil]
Sum of impurities (% HPLC area) [2, 4]: 1.21 % HPLC area

CCOc1nc2cccc(C(=O)OC(C)OC(=O)OC3CCCCC3)c2n1Cc1ccc(-c2ccccc2-c2nnn[nH]2)cc1 (centres unmarked) [Form I + 0.5% of Form II, candesartan cilexetil]
Sum of impurities (% HPLC area) [2, 3]: 1.46 % HPLC area

CCOc1nc2cccc(C(=O)OC(C)OC(=O)OC3CCCCC3)c2n1Cc1ccc(-c2ccccc2-c2nnn[nH]2)cc1 (centres unmarked) [Form I + 1.0% of Form II, candesartan cilexetil]
Sum of impurities (% HPLC area) [2, 3]: 2.00 % HPLC area

CCOc1nc2cccc(C(=O)OC(C)OC(=O)OC3CCCCC3)c2n1Cc1ccc(-c2ccccc2-c2nnn[nH]2)cc1 (centres unmarked) [Form I + 2.0% of Form II, candesartan cilexetil]
Sum of impurities (% HPLC area) [2, 3]: 2.88 % HPLC area

CCOc1nc2cccc(C(=O)OC(C)OC(=O)OC3CCCCC3)c2n1Cc1ccc(-c2ccccc2-c2nnn[nH]2)cc1 (centres unmarked) [Form I + 5.0% of Form II, candesartan cilexetil]
Sum of impurities (% HPLC area) [2, 3]: 6.65 % HPLC area

CCOc1nc2cccc(C(=O)OC(C)OC(=O)OC3CCCCC3)c2n1Cc1ccc(-c2ccccc2-c2nnn[nH]2)cc1 (centres unmarked) [Form I + 10.0% of Form II, candesartan cilexetil]
Sum of impurities (% HPLC area) [2, 3]: 12.78 % HPLC area

CCOc1nc2cccc(C(=O)OC(C)OC(=O)OC3CCCCC3)c2n1Cc1ccc(-c2ccccc2-c2nnn[nH]2)cc1 (centres unmarked) [Form I + 20.0% of Form II, candesartan cilexetil]
Sum of impurities (% HPLC area) [2, 3]: 23.20 % HPLC area

CCOc1nc2cccc(C(=O)OC(C)OC(=O)OC3CCCCC3)c2n1Cc1ccc(-c2ccccc2-c2nnn[nH]2)cc1 (centres unmarked) [Form II (Preparative Example 1), 2-ethoxy-1-[[2′-(1H-tetrazol-5-yl)[1,1′-biphenyl]-4-yl]methyl]-1H-benzimidazole-7-carboxylic acid, 1-[[(cyclohexyloxy)carbonyl]oxy]ethyl ester, reference compound]
content of impurities ([2]; 80° C. for 5 days, calculated from the areas of the HPLC chromatogram): 60 % (w/w)
stability in accelerated stability test (in words) ([2]; listed as Form II): unstable; also recorded: high instability
Sum of impurities (% HPLC area) ([2]; solid sample kept at 80° C. for 5 days): 59.98 % HPLC area
